Measurements reported in patent publication US20170360747A1, “USE OF ZILEUTON FOR THE TREATMENT OF NASAL POLYPS IN CYSTIC FIBROSIS PATIENTS” (CORNERSTONE THERAPEUTICS INC., priority 2011, published 2017).

Key:
[1] = molecular target: T1, 5-lipoxygenase (Homo sapiens, UniProt P09917); conditions: statement 'recently been found', no data given; cited from earlier work
T1 sequence (P09917 1-674): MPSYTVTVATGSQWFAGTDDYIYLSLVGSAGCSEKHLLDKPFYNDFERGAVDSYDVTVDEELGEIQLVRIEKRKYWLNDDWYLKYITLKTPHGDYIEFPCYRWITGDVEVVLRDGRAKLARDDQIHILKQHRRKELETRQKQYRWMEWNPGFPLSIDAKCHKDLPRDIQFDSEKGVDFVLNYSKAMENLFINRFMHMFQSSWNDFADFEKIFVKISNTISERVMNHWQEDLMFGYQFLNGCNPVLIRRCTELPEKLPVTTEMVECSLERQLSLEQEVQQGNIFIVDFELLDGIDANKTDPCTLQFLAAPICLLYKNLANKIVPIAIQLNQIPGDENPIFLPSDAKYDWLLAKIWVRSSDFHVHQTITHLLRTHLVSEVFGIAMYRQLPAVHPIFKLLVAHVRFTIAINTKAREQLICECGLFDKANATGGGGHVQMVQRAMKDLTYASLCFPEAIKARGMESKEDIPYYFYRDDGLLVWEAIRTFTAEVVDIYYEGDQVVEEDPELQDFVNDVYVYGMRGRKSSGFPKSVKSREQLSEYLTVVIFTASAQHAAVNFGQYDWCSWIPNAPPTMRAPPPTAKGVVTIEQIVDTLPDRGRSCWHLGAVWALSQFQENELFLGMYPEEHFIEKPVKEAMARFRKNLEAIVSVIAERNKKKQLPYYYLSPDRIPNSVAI

[2] = test system: nasal polyposis in patient with cystic fibrosis; test: Case report Example 1: cystic fibrosis patient with bilateral nasal polyposis; assay type: in vivo, human
Description: A patient has a history of cystic fibrosis and chronic sinusitis. The patient complained of hyposmia and nasal congestion. […] Culture of the sinuses grew out Pseudomonas. Patient was prescribed ciprofloxacin per the sinus culture. […] Prior to prescribing oral zileuton, a liver function test was performed that was normal. Patient was given zileuton 1200 mg BID. Two months later patient came back with improved nasal congestion and smell. […] Since the patient's symptoms improved, the zileuton was eventually discontinued. After a few months the patient's sinus infection returned. Patient was placed on oral ciprofloxacin.

[3] = test system: coughing in patient with cystic fibrosis and chronic sinusitis; test: Case report Example 2: cystic fibrosis patient with chronic sinusitis and coughing; assay type: in vivo, human
Description: Patient failed medical treatment, so they underwent endoscopic sinus surgery. Patient's sinus culture has grown MRSA and Pseudomonas. Patient initially did well after the surgery but was readmitted for pulmonary exacerbation. […] Patient was treated with ciprofloxacin for Pseudomonas. […] Nasal endoscopy was not performed in the child due to their young age. The patient was then treated with zileuton 600 mg BID after a normal liver function test. Patient's coughing improved with the zileuton treatment.

[4] = zileuton 1200 mg BID oral, two months later, one patient
[5] = treatments given before zileuton (ciprofloxacin for Pseudomonas; inhaled dornase alfa)

Molecule: C[C@H](c1cc2ccccc2s1)N(O)C(N)=O [(R)-zileuton]
- efficacy in inhibiting 5-lipoxygenase activity, compared between enantiomers and racemate [1]: more efficacious than either of (S)-zileuton and racemic zileuton

Molecule: CC(c1cc2ccccc2s1)N(O)C(N)=O (racemic) [zileuton, (±)-1-(1-Benzo[b]thien-2-ylethyl)-1-hydroxyurea]
- nasal congestion and smell [2, 4]: improved
- nasal endoscopy: polyps [2, 4]: decreased polyps
- nasal endoscopy: purulence ([2]; zileuton 1200 mg BID oral, two months later, prescribed ciprofloxacin not taken): no purulence
- adverse effect: coughing ([2]; zileuton 1200 mg BID, dose then decreased to 600 mg BID): increased coughing
- coughing ([3]; zileuton 600 mg BID, one patient): improved

Molecule: O=C(O)c1cn(C2CC2)c2cc(N3CCNCC3)c(F)cc2c1=O [ciprofloxacin]
- nasal symptoms after return of sinus infection ([2]; oral ciprofloxacin, after zileuton was discontinued): initial improvement but eventually had return of their nasal symptoms
- coughing [3, 5]: initially improved but gradually returned

B1: dornase alfa (protein, UniProt P24855 23-282, looked up)
Deoxyribonuclease-1: LKIAAFNIQTFGETKMSNATLVSYIVQILSRYDIALVQEVRDSHLTAVGKLLDNLNQDAPDTYHYVVSEPLGRNSYKERYLFVYRPDQVSAVDSYYYDDGCEPCGNDTFNREPAIVRFFSRFTEVREFAIVPLHAAPGDAVAEIDALYDVYLDVQEKWGLEDVMLMGDFNAGCSYVRPSQWSSIRLWTSPTFQWLIPDSADTTATPTHCAYDRIVVAGMLLRGAVVPDSALPFNFQAAYGLSDQLAQAISDHYPVEVMLK
notes: inhaled dornase alfa, part of aggressive medical treatment
- coughing [3, 5]: continued to have coughing
